Two compounds from ChEMBL document CHEMBL2074125 (Drug Metabol Pharmacokin, 2002) can be followed below.

pIC50: −log10 of the molar value.

Series [1] addresses T1, Solute carrier family 22 member 6 (Rattus norvegicus, UniProt O35956).
T1 sequence (O35956 whole entry): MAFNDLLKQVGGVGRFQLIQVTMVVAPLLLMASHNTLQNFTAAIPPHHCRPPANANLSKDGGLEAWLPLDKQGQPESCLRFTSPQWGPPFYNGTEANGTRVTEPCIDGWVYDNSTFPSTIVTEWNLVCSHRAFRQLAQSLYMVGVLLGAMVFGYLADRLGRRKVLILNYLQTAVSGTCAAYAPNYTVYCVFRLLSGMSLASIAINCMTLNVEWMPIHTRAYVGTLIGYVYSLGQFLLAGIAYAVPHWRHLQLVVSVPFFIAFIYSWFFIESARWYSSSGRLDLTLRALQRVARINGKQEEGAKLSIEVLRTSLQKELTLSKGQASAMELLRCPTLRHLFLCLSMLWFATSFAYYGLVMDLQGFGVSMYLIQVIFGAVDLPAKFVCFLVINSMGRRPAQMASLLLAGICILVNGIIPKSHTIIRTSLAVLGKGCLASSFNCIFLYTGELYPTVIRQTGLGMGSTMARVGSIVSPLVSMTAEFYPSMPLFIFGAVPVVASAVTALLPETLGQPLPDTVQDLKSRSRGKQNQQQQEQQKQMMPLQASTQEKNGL
Nature of the series: TP_TRANSPORTER: uptake in Xenopus laevis oocytes. Conditions: oocyte. Format: functional, cell-based.

Series [2] deals with T1, Solute carrier family 22 member 6. Nature of the series: TP_TRANSPORTER: inhibition of PAH uptake in Xenopus laevis oocytes. Format: functional, cell-based, Oocyte.

As for `CC1=C(C(=O)O)N2C(=O)[C@@H](NC(=O)[C@H](N)c3ccccc3)[C@H]2SC1` [CEPHALEXIN ANHYDROUS], the Activity result in series [1] was “substrate [+]”.
Compound `CN(C)CCn1nnnc1SCC1=C(C(=O)O)N2C(=O)[C@@H](NC(=O)Cc3csc(N)n3)[C@H]2SC1` [CEFOTIAM] showed a pIC50 in series [2] of 3.14. For the same compound, in series [1], the Activity result is “substrate [+]”.

In general, pIC50 refers to the IC50 on a negative log10 scale, so that one unit is a factor of ten. A low value points to a high IC50.
